According to patent US7824661B2, “Technetium- and rhenium-bis(heteroaryl) complexes, and methods of use thereof” (priority 2002, dated 2010):

Assays:
[1] = Whole body biodistribution studies in rats; type: in vivo, Rats (Sprague Dawley, male)
Experimental: The animal care and use procedures were in accordance with the Guide for the Care and Use of Laboratory Animals and the Animal Welfare Act. The vertebrate animals in this research project were used to investigate the biodistribution and pharmacokinetics of the rotenone derivatives and determine uptake in the heart. Rats (Sprague Dawley, male, at 80-100 grams each) were used for the whole body biodistribution studies. The Tc-complexes, as well as Cardiolite™, were evaluated at three time points; 5, 30, and 120 minutes, with five animals per time point. In order to provide accurate statistics in the clearance rate measurements and to account for intra-species variation it was necessary to use this number of animals. The product was diluted to ˜10 μCi/100 μl using freshly prepared 10% ethanol/saline (0.9%) solution. The rats were injected via a lateral tail vein with a volume of 0.1 mL. The rats were sacrificed by decapitation, with immediate blood collection at the desired time points. Whole body biodistributions were performed on the animals immediately following decapitation, organ and tissue samples were taken and washed of excess blood, blotted dry and weighed. Radioactivity was assayed using automated Nal well counter. All tissue samples were counted together along with an aliquot of the injected dose so that % injected dose and % injected dose per gram of tissue could be calculated. […]

[2] = type: physicochemical
Experimental: The stability and robustness of the technetium-di(pyridine) complexes was assessed using challenges with free cysteine and histidine. Specifically, the experiments were performed using [^99mTc(CO)3(dipyridinemethylamine)]^+1.
This approach enables the creation of libraries containing the {M(CO)31}^1+ core. We have begun to define the biological fate of the ^99mTc-dipyridine complexes, allowing us to compare a series of future tridentate analogs. The dipyridine labeling proceeded in high yield and was stable to excess histidine and cysteine challenges for more than 18 hours. […] Activity decreased in all tissues as a function of time, except in the GI tract, which increased with time.
[^99mTc(CO)3(H2O)3]^+ was heated with [{N,N-di(pyridyl-2-methyl)}N-butyl-phthalimide in 0.5 mL (1 mg/mL) of methanol at 100° C. for 60 minutes. […] The product eluted with methanol at 20.8 minutes. The HPLC analysis was performed using a Supelco C18 column, 25 cm×4.6 mm column (5 μm pore size), equipped with 2 cm guard using solvent A=0.05 M triethylammonium phosphate buffer pH 2.5 and solvent B=methanol. The method employed was a gradient 5-95% B, 1 mL/minute for 30 minutes. The gradient ramped from 5-95 from 3-20 minutes.

Substance	blood clearance, % ID/g ([1]; at 5 minutes)	blood clearance, % ID/g ([1]; by 30 minutes)	stability and robustness in challenges with free cysteine and histidine [2]	change in the components by HPLC analysis ([2]; aqueous solution of the complex incubated with cysteine for 18 hours at 37° C. at pH 7.4)
[^99mTc(CO)3(DpK)]	0.6 % ID/g	0.07 % ID/g	–	–
[^99mTc(CO)3(dipyridinemethylamine)]^+1	–	–	stable	no significant change
